The IC50 is the concentration needed to halve the response being measured.

The structures appear in SMILES notation.

This note sets out measurements from PMC4259414, “HS-133, a novel fluorescent phosphatidylinositol 3-kinase inhibitor as a potential imaging and anticancer agent for targeted therapy” (Oncotarget, 2014).

In test [1] the test system is SkBr3 cells. In words: cell viability MTT assay, SkBr3. The class given is cell-based. To be noted: Homo sapiens, SK-BR-3, 48 h, SkBr3, 48 h, read-out: IC50, cell growth inhibition. The procedure:
To determine whether HS-133 can function as a novel anticancer compound, we tested the ability of this compound to inhibit the growth of breast cancer cell lines (SkBr3, T47D, and MCF-7) using an MTT assay. The cells were exposed to various concentrations (0.5–50 μM) of HS-133 for 48 h. As shown in Fig. 3A-C, HS-133 inhibited the growth of all three breast cancer cell lines in a dose-dependent manner.
Cell viability was performed by an MTT assay. Briefly, the SkBr3, T47D, and MCF-7 cells were plated at a density of 1-5 × 10^3 cells/well in a 96-well plate for 48 h. The medium was removed, and the cells were treated with either DMSO as control or various concentrations of HS-133. The final concentration of DMSO in the medium was ≤ 0.1% (v/v). After the cells were incubated for 48 h, 20 μl of MTT solutions (2 mg/ml) was added to each well for another 4 h at 37°C. The formazan crystals that formed were dissolved in DMSO (200 μl/well) via constant shaking for 5 min. The plate was then read on a microplate reader at 540 nm. Three replicate wells were used for each analysis. The median inhibitory concentration (IC50, defined as the drug concentration at which cell growth was inhibited by 50%) was assessed from the dose-response curves.
(In general: Formazan colour is commonly taken as a measure of viable cells.)

Test [2] deals with SkBr3 cells. In words: cell cycle analysis by PI staining and flow cytometry. The class given is cell-based, human. To be noted: SkBr3, 1, 10, 50 μM, 24 h. The procedure:
To examine the relationship between the growth inhibitory effect of HS-133 and cell cycle progression, we analyzed cell cycle distribution of SkBr3 cells by HS-133 using a flow cytometry. The SkBr3 cells were treated for 24 h with various concentrations of HS-133 (1, 10, 50 μM) and collected and stained with PI and then analyzed by FACS. […] The up-regulation of p27, cyclin dependent kinase (CDK) inhibitor, is related to G0/G1 cell cycle arrest and contributes to the down-regulation of cyclin D1 [31]. Thus, we evaluated the effect of HS-133 on the protein expressions of p27 and cyclin D1. HS-133 increased the expression of p27 while decreasing cyclin D1 expression (Fig. 4C).
The SkBr3 cells were plated in 100 mm-diameter culture dishes. On the following day, the cells were treated with various concentrations of HS-133 or 0.1% DMSO for 24 h. The floating and adherent cells were collected and fixed in cold 70% ethanol at 4°C overnight. […] The events were evaluated for each sample and the cell cycle distribution was analyzed using Cell Quest software (Becton Dickinson). The results were presented as the number of cells versus the amount of DNA, as indicated by the intensity of a fluorescence signal. […]
A general note: In flow cytometry, cells or beads pass a laser one at a time.

`CC(=O)Nc1ccc(-c2nc3c(c(=O)n(C)c(=O)n3C)n2-c2cccc(F)c2)cc1` [HS-133, N-(4-(7-(3-Fluorophenyl)-1,3-dimethyl-2,6-dioxo-2,3,6,7-tetrahydro-1H-purin-8-yl)phenyl) acetamide]: the IC50 with SkBr3 cells [1] was found to be 46.8 µM. Besides, the cell cycle distribution result in the test on SkBr3 cells [2] is recorded as “increased the number of cells in the G0/G1 phase”.
